Experiments:
[1] = test system: reactive oxygen species (ROS); assay: DCFDA fluorescence; assay type: cell-based, rat; settings: 5 μM
Method: The production of reactive oxygen species (ROS) can be measured using 2′-7′dichloro-dihydrofluorescein diacetate (DCFDA).
Dihydro-2′,7′-dichloroflorescin-diacetate (DCFDA) for Monitoring Peroxide Formation: DCFDA (Sigma C-6827) was dissolved in DMSO at a concentration of 205 mM. The stock was diluted to 50 μM in phosphate buffered saline. Cells were preloaded with DCFDA for 1 hour prior to dosing with test compounds. Positive control wells were dosed with freshly prepared 300 μM t-Butyl hydroperoxide (tBHP). After compound exposure, the plates were washed with phosphate buffered saline and read at 485/530 in a Packard Fusion plate reader.
Dihydro-2′,7′-dichloroflorescin-diacetate (DCFDA) for Monitoring Peroxide Formation: Plates were read at 485/530 in a Packard Fusion plate reader or equivalent.

BAX = assay: bDNA analysis of mRNA in rat cardiomyocytes; assay type: cell-based; settings: after 1 hr at 10 μM
Method: (§1) Bcl2 is often induced in response to BAX a protein that promotes apoptosis.
(§2) […] Plates were mixed using a DPC 5 Micromix plate shaker at 37° C. for 15-30 minutes to ensure complete lysis of cells. Cell lysis was confirmed using a Nikon inverted microscope. Plates were stored at −80° C. until further analysis.
(§3) bDNA Analysis (Day 1): All solutions were prepared fresh on the day of analysis. Quantigene® bDNA kit components were brought to room temperature prior to use. Chemicals not supplied by Genospectra were obtained from Sigma-Aldrich.
(§4) On the day of analysis, Target Probe Sets were prepared for probe gene sets by adding 25 μL of each probe set component (CE, LE, BL) to 425 μL stock lysis solution using the following probe set concentrations: CE (50 fmol/μL), LE (200 fmol/μL), BL (100 fmol/μL).
(§5) Cell lysis plates were removed from freezer storage and thawed. […] Next, 10 μL of the appropriate Target Probe Set (PS2) was added to each appropriate well of the Capture Plate. Plates were tightly sealed using a plate sealer and incubated at 53° C. for 16-20 hr (overnight).
(§6) bDNA Analysis (Day 2): Wash buffer was prepared in ultra-pure water using 0.1×Saline-Sodium Citrate (SSC) and 0.03% Lithium Lauryl Sulfate (LLS). Amplifier working solution was prepared by adding 10 μL Amplifier to 10 mL Amplifier Diluent per plate.
(§7) Plates were removed from incubator and washed three times with 300 μL wash buffer. […]

Bcl2 = assay: bDNA analysis of mRNA in rat cardiomyocytes; assay type: cell-based; settings: after 6 hr at 10 μM
Method: as §1, §2, §3, §4, §5, §6, §7

H4IIE cells [2] = assay: Intracellular total glutathione (GSH); assay type: cell-based, rat; settings: rat, 24 h
In short: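 Rat hepatoma H4IIE cells were exposed to compound in dosing solutions made in complete culture medium, then harvested for biochemical measurement of intracellular total glutathione as an oxidative-stress marker. Values are exposure-group means, n=3-7.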

BNP = assay: bDNA analysis of mRNA in rat cardiomyocytes; assay type: cell-based; settings: rat cardiomyocytes, 1, 3, 6 and 24 hours
Text: (§8) Hypertrophy of the heart ventricular myocytes is regulated by a complex series of intracellular signaling processes involving angiotensin receptors and a series of down stream gene expression changes (Li et al. 2006). Endothelin-1 (ET-1) induces hypertrophy of cardiomyocytes in vivo and in vitro. The mechanism of ET-1-induced hypertrophy consists in the activation of phospholipase C, protein kinase C, extra cellular signal regulated kinase (ERK) and upregulation of cfos and cjun.
(§9) Expression of ANP and BNP mRNA levels was determined by bDNA analysis of mRNA. ET-1 at 0.1 μM was included as a positive control.
as §2, §3, §4, §5, §6
(§10) Plates were removed from incubator and washed three times with 300 μL wash buffer. Wash buffer was completely removed from plates by aspiration and 100 μL Amplifier working solution was added to each well. Plates were sealed and incubated at 46° C. for 1 hr.
(§11) Label Probe working solution was prepared by adding 10 μL Label Probe to 10 mL Label Probe Diluent per plate. […] Plates were sealed and incubated at 46° C. for 1 hr.

ANP = assay: bDNA analysis of mRNA in rat cardiomyocytes; assay type: cell-based; settings: rat cardiomyocytes, 1, 3, 6 and 24 hours
Text: as §8, §9, §2, §3, §4, §5, §6, §10, §11

H4IIE cells [3] = assay: Cell number (propidium iodide); assay type: cell-based, rat; settings: rat, 24 h
In short: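 Rat hepatoma H4IIE cells exposed to compound in complete medium, then lysed with Triton X-100 containing propidium iodide; fluorescence read at 540/610 nm. Blank-subtracted RFU expressed as percent of untreated control cells, means of n=3-7.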

NRK cells = assay: Caspase 3 activity (apoptosis); assay type: cell-based, rat
Method: Caspase 3 Procedure: Caspase 3 activity was determined using a caspase substrate (DEVD, Asp-Glu-Val-Asp) labeled with a fluorescent molecule, 7-Amino4-methylcoumarin (AMC). Caspase 3 cleaves the tetrapeptide between D and AMC, thus releasing the fluorogenic […] AMC. Following the test article exposure to cells in 96-well plates, medium was aspirated from plates and PBS added to each well. Plates were stored at −80° C. to lyse cells and store samples until further analysis. On the day of analysis, plates were removed from freezer and thawed. Caspase buffer with fluorescent substrate was added to each well and incubated at room temperature for 1 hr. AMC release was measured in a spectrofluorometer at an excitation wavelength of 360 nm and an emission wavelength of 460 nm. Values are expressed as relative fluorescent units (RFU).
Caspase Activity: After sample plates were completely thawed, the caspase substrate buffer mix was added to each plate. Plates were incubated at room temperature for 1hr, shielded from light. Plates were read using a in a spectrofluorometer at an excitation wavelength of 360 nm and an emission wavelength of 460 nm. Values were expressed as relative fluorescent units (RFU).
The key to the maximal response data can be found below Table 2.
The third experiment was done to evaluate the specificity and selectivity of the test compound in another non-tumor cell that was derived from normal rat kidney tissue.

COc1cccc2c1C(=O)c1c(O)c3c(c(O)c1C2=O)C[C@@](O)(C(=O)CO)C[C@@H]3O[C@H]1C[C@H](N)[C@H](O)[C@H](C)O1 [ADRIAMYCIN, Adriamycin]
increase in DCFDA (ROS related) fluorescence [1]: 4 fold | BAX increase (BAX): 3 fold | Bcl2 induction (Bcl2): 6 fold | CC50 (H4IIE cells [2]): 48 µM | effect on BNP expression (BNP): no effect | effect on ANP expression (ANP): no effect | CC50 (H4IIE cells [3]): 9 µM

CC[C@@]1(O)C(=O)OCc2c1cc1n(c2=O)Cc2cc3ccccc3nc2-1 [CAMPTOTHECIN, Camptothecin]
Caspase 3 Activity (Index/Dose): Dose (NRK cells; 6 HR): 100 µM | Caspase 3 Activity (Index/Dose): Index (NRK cells; 6 HR): 3 (40-60 = 3) | Caspase 3 Activity (Index/Dose): Dose (NRK cells; 24 HR): 300 µM | Caspase 3 Activity (Index/Dose): Index (NRK cells; 24 HR): 10 (180-200 = 10)
